# Assay results published in patent US6303596A, “Use of taurolidine for treatment of leukemias” (priority 2000, dated 2001).
# How the values were obtained:
# [1] = tested on: Jurkat cells; assay: growth rate after taurolidine treatment, Jurkat; assay type: cell-based, human
# Method: FIGS. 9A and 9B depict cell viability and growth rates for Jurkat cell line following taurolidine treatment, in terms of % trypan blue negative cells and % cell number, respectively. Cells were treated with various concentrations of taurolidine for 4 hours in AIM-V+0.01% BCS. After aliquots were collected for LDH assay, the remainder of the culture was rinsed in HBSS and resuspended in RPMI+10% BCS without taurolidine. Counts of trypan blue-negative cells (FIG. 9A), and total cell number (FIG. 9B), were recorded daily thereafter (with the measurement at Day 1 being made immediately after the 4 hour taurolidine treatment). Conditions were: no treatment (open circles); 25 μg/ml taurolidine (closed circles); 50 μg/ml taurolidine (open squares); 100 μg/ml taurolidine (closed squares); and vehicle alone (closed triangles). Doubling times were determined under each condition, and expressed as a percentage of the rate of doubling of untreated cells. These values are located to the right of the growth curves in (FIG. 9B). […]
# HL-60 cells treated with 50 μl taurolidine. In these samples, LDH present in the culture medium was 8.3±2.3% of that released by completely lysed cells, compared with 2.3±0.8% measured in control cultures. […] After 4 hour treatment, cells were rinsed and returned to growth medium and monitored for viability and growth over the following 3 days. […]
# [2] = tested on: K562; assay: TUNEL / propidium iodide flow cytometry, K562; assay type: cell-based, human; details: taurolidine 100 μg/ml or anisomycin 1 μg/ml for 4 h, assayed at 24 hours, mean ± SD
# Method: In the second method, DNA fragmentation was detected via TUNEL assay according to the manufacturer's instructions. With this methodology, 2×10^6 cells were fixed with 2% paraformaldehyde, permeabilized with 0.1% Triton X-100/0.1% citrate, incubated at 37° C. with terminal deoxynucleotidyl transferase and FITC-dUTP, rinsed and analyzed by flow cytometry. Enhanced FITC signal indicates apoptosis-specific DNA fragmentation. Gavriali, et al, "Identification of programmed cell death in situ via specific labeling of nuclear DNA fragmentation," J Cell Biol 119:493 (1992). Parallel aliquots of unfixed cells were treated with PI and FITC-conjugated anti-CD14 and analyzed by flow cytometry, in order to identify cells with permeable cell membranes (since PI binds to DNA but is excluded from cells with intact plasma membranes) and also to determine the cell-specificity of the apoptotic signal.
# In another study, TUNEL assays were performed on all cell lines 6 hours after cells were initially exposed to taurolidine (cells were treated for 4 hours, rinsed, and then incubated for 2 more hours before TUNEL assay was performed).
# . Taurolidine and anisomycin induced apoptosis in MM6, HL-60, and Jurkat cells (Table VIII). MM6 and HL-60 cells were similarly effected, with >80% TUNEL-positive cells after 6 hours. Jurkat cells were less sensitive, with approximately 50% of cells induced to undergo apoptosis after taurolidine treatment. After 6 hours, 73% of anisomycin-treated REH cells were apoptotic, with less than 20% of taurolidine-treated REH cells being TUNEL-positive. However, assay of cells 24 hours after
# ^a Analysis by flow cytometry after staining cells with propidium
# iodide and processing for TUNEL.
# Data are percent of total cell-size events, and are expressed as mean ±
# Cells were treated for 4 hours with taurolidine (100 μg/ml) or
# anisomycin (1 μg/ml), and then assayed at 6 hours.
# Data are percent of total cell-sized events, and are expressed as mean ±
# anisomycin (1 μg/ml), and then assayed at 24 hours.
smiles,measurement,setting,value
"O=S1(=O)CCN(CN2CCS(=O)(=O)NC2)CN1 [taurolidine, 4,4'-methylenebis(perhydro-1,2,4-thiadiazin 1,1-dioxide)]",sensitivity of cell growth among cell lines,[1],least affected
same,% TUNEL-positive,[2],approximately 20%
